Assay results: patent publication US20060069132A1, “Azolecarboxamide herbicides” (priority 2004, published 2006)

Tests used:
lambsquarters = assay: Test B pre-/postemergence herbicide test; assay type: in vivo, Chenopodium album
Method in brief: (§1)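 Greenhouse pot assay with simultaneous preemergence (treated seed) and postemergence (2–18 cm seedlings) applications of surfactant-containing, non-phytotoxic solvent formulations. Response scored visually 13–15 days later on a 0–100 scale, 100 meaning complete control.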

ducksalad = assay: Test B flooded paddy test; assay type: in vivo, Heteranthera limosa; settings: scale 0 to 100 (0 no effect, 100 complete control)
Method in brief: (§2)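 Treated at 2-leaf (paddy) or 1–4-leaf, 2–18 cm (postemergence); greenhouse 13–15 d; visual score vs control, 0 none to 100 complete control; dash = not tested.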

giant foxtail = assay: Test B pre-/postemergence herbicide test; assay type: in vivo, Setaria faberi
Method in brief: as §1

wild oat = assay: Test B postemergence herbicide test; assay type: in vivo, Avena fatua
Method in brief: as §2

Surinam grass = assay: Test B pre-/postemergence herbicide test; assay type: in vivo, Urochloa decumbens
Method in brief: as §1

wheat = assay: Test B postemergence herbicide test; assay type: in vivo, Triticum aestivum; set-up: key to Wheat plant response rating: 0 = no effect, 100 = complete control
Method in brief: as §2

barnyardgrass [1] = assay: Test B flooded paddy test; assay type: in vivo, Echinochloa crus-galli; settings: scale 0 to 100 (0 no effect, 100 complete control)
Method in brief: as §2

barnyardgrass [2] = assay: Test B pre-/postemergence herbicide test; assay type: in vivo, Echinochloa crus-galli
Method in brief: (§3)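 Herbicidal effect was judged by eye on a 0–100 scale after plants stood 13 to 15 days in the greenhouse following pre- or postemergence treatment with surfactant-containing formulations.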

blackgrass = assay: Test B postemergence herbicide test; assay type: in vivo, Alopecurus myosuroides
Method in brief: as §2

velvetleaf = assay: Test B pre-/postemergence herbicide test; assay type: in vivo, Abutilon theophrasti
Method in brief: as §1

corn = assay: Test B pre-/postemergence herbicide test; assay type: in vivo, Zea mays
Method in brief: as §1

large crabgrass = assay: Test B pre-/postemergence herbicide test; assay type: in vivo, Digitaria sanguinalis
Method in brief: as §1

cocklebur = assay: Test B pre-/postemergence herbicide test; assay type: in vivo, Xanthium strumarium
Method in brief: as §3

rice = assay: Test B flooded paddy test; assay type: in vivo, Oryza sativa; settings: scale 0 to 100 (0 no effect, 100 complete control)
Method in brief: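 Greenhouse test; postemergence application to plants at 1–4 leaves (2–18 cm); paddy species at 2 leaves; evaluated visually vs controls at 13–15 days; scale 0–100 (100 = complete control).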

[3] = test system: small flower umbrella sedge; assay: Test B flooded paddy test; assay type: in vivo, Cyperus difformis; settings: scale 0 to 100 (0 no effect, 100 complete control)
Method in brief: as §2

pigweed = assay: Test B pre-/postemergence herbicide test; assay type: in vivo, Amaranthus retroflexus
Method in brief: as §1

morningglory = assay: Test B pre-/postemergence herbicide test; assay type: in vivo, Ipomoea coccinea
Method in brief: as §3

[4] = Postemergence, 500 g ai/ha, scale 0 (no effect) to 100 (complete control)
[5] = postemergence, 125 g ai/ha, scale 0 to 100
[6] = 500 g ai/ha, scale 0 to 100, 0 no effect, 100 complete control, preemergence
[7] = 125 g ai/ha, 0 is no effect, 100 is complete control, preemergence
[8] = 125 g ai/ha, visual rating, scale 0 (no effect) to 100 (complete control), postemergence
[9] = postemergence, 500 g ai/ha, scale 0 to 100, 0 is no effect, 100 is complete control

Cc1nn(C(C)(C)C)nc1C(=O)Nc1cccc(C(=O)N(C)C)n1 [Compound 436]
Lambsquarters plant response rating (lambsquarters; [4]): 0
Lambsquarters plant response rating (lambsquarters; [5]): 0
Ducksalad plant response rating (ducksalad; 125 g ai/ha): 0
Foxtail, Giant plant response rating (giant foxtail; [4]): 0
Foxtail, Giant plant response rating (giant foxtail; [5]): 0
Oat, Wild plant response rating (wild oat; [4]): 30
Oat, Wild plant response rating (wild oat; [5]): 10
Surinam Grass plant response rating (Surinam grass; [4]): 0
Surinam Grass plant response rating (Surinam grass; [5]): 0
Wheat plant response rating (wheat; [6]): 20
Wheat plant response rating (wheat; [4]): 20
Wheat plant response rating (wheat; [5]): 10
Barnyardgrass plant response rating (barnyardgrass [1]; 125 g ai/ha): 0
Barnyardgrass plant response rating (barnyardgrass [2]; Postemergence, 125 g ai/ha, scale 0 (no effect) to 100 (complete control)): 0
Barnyardgrass plant response rating (barnyardgrass [2]; [4]): 0
Blackgrass plant response rating (blackgrass; [4]): 0
Blackgrass plant response rating (blackgrass; [5]): 0
Velvetleaf plant response rating (velvetleaf; [4]): 30
Velvetleaf plant response rating (velvetleaf; [5]): 0
Corn plant response rating (corn; [4]): 10
Corn plant response rating (corn; [5]): 0
Crabgrass, Large plant response rating (large crabgrass; [4]): 0
Crabgrass, Large plant response rating (large crabgrass; [5]): 0
Cocklebur plant response rating (cocklebur; [4]): 10
Cocklebur plant response rating (cocklebur; [5]): 0
Rice plant response rating (rice; 125 g ai/ha): 0
Sedge, Umbrella plant response rating ([3]; 125 g ai/ha): 0
Pigweed plant response rating (pigweed; [4]): 10
Pigweed plant response rating (pigweed; [5]): 0
Morningglory plant response rating (morningglory; [4]): 0
Morningglory plant response rating (morningglory; [5]): 0

CCc1nn(C(C)(C)C)nc1C(=O)Nc1cc(C(=O)N2CC=CC2)ccc1F [Compound 363]
Plant response rating (0 to 100 scale), Lambsquarters (lambsquarters; [7]): 0
Lambsquarters plant response rating (lambsquarters; [8]): 30
Ducksalad plant response rating (ducksalad; 1000 g ai/ha): 90
Plant response rating (0 to 100 scale), Foxtail, Giant (giant foxtail; [7]): 20
Foxtail, Giant plant response rating (giant foxtail; [8]): 10
Foxtail, Giant plant response rating (giant foxtail; [9]): 10
Oat, Wild plant response rating (wild oat; [8]): 20
Plant response rating (0 to 100 scale), Surinam Grass (Surinam grass; [7]): 0
Surinam Grass plant response rating (Surinam grass; [8]): 10
Wheat plant response rating (wheat; [8]): 10
Wheat plant response rating (wheat; [6]): 30
Barnyardgrass plant response rating (barnyardgrass [1]; 1000 g ai/ha): 60
Plant response rating (0 to 100 scale), Barnyardgrass (barnyardgrass [2]; [7]): 0
Barnyardgrass plant response rating (barnyardgrass [2]; [8]): 0
Barnyardgrass plant response rating (barnyardgrass [2]; [9]): 0
Blackgrass plant response rating (blackgrass; [8]): 20
Blackgrass plant response rating (blackgrass; [9]): 70
Plant response rating (0 to 100 scale), Velvetleaf (velvetleaf; [7]): 0
Velvetleaf plant response rating (velvetleaf; [8]): 10
Plant response rating (0 to 100 scale), Corn (corn; [7]): 0
Corn plant response rating (corn; [8]): 0
Corn plant response rating (corn; [9]): 0
Plant response rating (0 to 100 scale), Crabgrass, Large (large crabgrass; [7]): 20
Crabgrass, Large plant response rating (large crabgrass; [8]): 10
Crabgrass, Large plant response rating (large crabgrass; [9]): 10
Plant response rating (0 to 100 scale), Cocklebur (cocklebur; [7]): 0
Cocklebur plant response rating (cocklebur; [8]): 20
Cocklebur plant response rating (cocklebur; [9]): 30
Rice plant response rating (rice; 1000 g ai/ha): 60
Sedge, Umbrella plant response rating ([3]; 1000 g ai/ha): 80
Plant response rating (0 to 100 scale), Pigweed (pigweed; [7]): 0
Pigweed plant response rating (pigweed; [8]): 20
Plant response rating (0 to 100 scale), Morningglory (morningglory; [7]): 0
Morningglory plant response rating (morningglory; [8]): 50
